Peptide text beside a SMILES is read from it. * marks the point of attachment. Cbz = O=C(OCc1ccccc1)*
How the values were obtained:
UBR1 [1] = assay: Inhibition of R-nsP4 degradation by in vitro transcription/translation method; format: biochemical; details: compound 1 uM, 30° C. for 40 minutes, DHFR-Ub-R-nsP4 plasmid, immunoblotting
Experimental: A TnT® Quick Coupled Transcription/Translation System kit was used to confirm the R-nsP4 expression of the compounds. After a pre-mix was made using Transcend Biotin-Lysyl-tRNA, methionine, bestatin, a TnTquick Master mix and a DHFR-Ub-R-nsP4 plasmid, the pre-mix was mixed with a compound (1 uM). After each sample was reacted at 30° C. for 40 minutes, a 5×SDS loading dye was added thereto. After the resulting mixture was reacted at 95° C. for 2 minutes, 5 uL was taken and aliquoted into each well of an acrylamide gel, and then an immunoblotting method was performed, and the experimental results are illustrated in [FIG. 2]. For an in vitro transcription/translation method, a representative experiment was schematized from three or more independent experiments.
Referring to FIG. 2, it can be confirmed that the level of R-nsP4 is increased by Compound 2, Compound 3, Compound 7, Compound 12, Compound 14, and Compound 16 compared to the control. That is, it could be confirmed that in the case of treatment with the compound according to the present invention, the R-nsP4 level was increased by binding to UBR1.

UBR1 [2] = target: T1, UBR1 (Rattus norvegicus, UniProt A0A8I5ZK69); assay: Inhibition of intracellular RGS4 degradation by transfection (immunoblotting); format: cell-based; details: L6 cell line transfected with RGS4 plasmid, compound 5 uM, 24 hours
T1 construct: endogenous in cells; host or cells: L6 rat muscle-derived cells
T1 sequence (A0A8I5ZK69 1-1749): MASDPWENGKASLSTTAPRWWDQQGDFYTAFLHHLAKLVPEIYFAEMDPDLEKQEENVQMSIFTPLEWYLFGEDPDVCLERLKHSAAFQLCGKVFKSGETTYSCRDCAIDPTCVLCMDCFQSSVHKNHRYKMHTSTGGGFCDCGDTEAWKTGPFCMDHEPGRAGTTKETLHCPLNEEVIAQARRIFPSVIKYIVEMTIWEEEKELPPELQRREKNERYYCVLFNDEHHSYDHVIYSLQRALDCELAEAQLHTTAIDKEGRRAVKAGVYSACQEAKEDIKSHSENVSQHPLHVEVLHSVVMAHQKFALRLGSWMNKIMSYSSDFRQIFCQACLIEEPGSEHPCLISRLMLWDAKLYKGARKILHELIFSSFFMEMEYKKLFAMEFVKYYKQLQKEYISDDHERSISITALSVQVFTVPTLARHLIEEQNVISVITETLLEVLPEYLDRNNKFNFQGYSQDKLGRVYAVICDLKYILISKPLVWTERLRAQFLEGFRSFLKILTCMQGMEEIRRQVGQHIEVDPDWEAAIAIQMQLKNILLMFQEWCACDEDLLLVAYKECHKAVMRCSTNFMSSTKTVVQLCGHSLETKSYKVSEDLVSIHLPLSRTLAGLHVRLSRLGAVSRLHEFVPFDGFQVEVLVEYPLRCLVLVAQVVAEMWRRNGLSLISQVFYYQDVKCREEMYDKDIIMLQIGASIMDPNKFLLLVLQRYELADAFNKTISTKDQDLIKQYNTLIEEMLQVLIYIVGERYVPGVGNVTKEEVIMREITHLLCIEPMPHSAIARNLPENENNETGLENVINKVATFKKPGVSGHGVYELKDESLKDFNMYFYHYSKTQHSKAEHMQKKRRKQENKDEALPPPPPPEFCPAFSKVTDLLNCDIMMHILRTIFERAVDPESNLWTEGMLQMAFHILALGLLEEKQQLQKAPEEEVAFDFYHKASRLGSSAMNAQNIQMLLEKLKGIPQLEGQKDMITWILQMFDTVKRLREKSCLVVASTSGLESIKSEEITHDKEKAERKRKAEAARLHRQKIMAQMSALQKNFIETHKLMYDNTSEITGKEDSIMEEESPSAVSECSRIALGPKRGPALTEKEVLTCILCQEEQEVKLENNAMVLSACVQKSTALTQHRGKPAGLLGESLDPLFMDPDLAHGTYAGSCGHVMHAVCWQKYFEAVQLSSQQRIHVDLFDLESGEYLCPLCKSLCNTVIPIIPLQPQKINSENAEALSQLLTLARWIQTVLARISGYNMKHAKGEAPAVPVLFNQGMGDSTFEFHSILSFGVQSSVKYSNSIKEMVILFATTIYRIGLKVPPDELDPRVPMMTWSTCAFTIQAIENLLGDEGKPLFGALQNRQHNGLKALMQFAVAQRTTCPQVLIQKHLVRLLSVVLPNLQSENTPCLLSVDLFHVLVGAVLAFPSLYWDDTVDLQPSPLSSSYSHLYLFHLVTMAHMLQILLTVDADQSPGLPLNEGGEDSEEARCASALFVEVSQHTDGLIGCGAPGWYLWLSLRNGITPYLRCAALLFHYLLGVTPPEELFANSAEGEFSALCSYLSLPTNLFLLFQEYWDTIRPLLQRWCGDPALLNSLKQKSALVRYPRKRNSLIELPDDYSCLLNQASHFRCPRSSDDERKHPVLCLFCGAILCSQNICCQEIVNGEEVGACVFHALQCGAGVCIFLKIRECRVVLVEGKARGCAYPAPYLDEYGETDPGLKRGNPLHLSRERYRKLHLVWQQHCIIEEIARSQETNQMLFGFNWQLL
Experimental: A L6 cell line, which is a rat muscle-derived cell, was cultured using a DMEM medium containing 10% FBS and 1% streptomycin/penicillin in an incubator in which 5% carbon dioxide was maintained. In order to measure the UBR1 binding strength according to the treatment with a representative compound selected from the present compounds, cells were aliquoted into a 6-well plate. The cells were additionally cultured for 24 hours so as to be completely attached to the surface of the plate. Opti-MEM, Lipofectamine, and an RGS4plasmid was reacted for transfection. After the reaction was completed, the cells are treated such that DNA was expressed intracellularly. […] To extract proteins from the collected cells, 50 uL of a lysis buffer (20 mM Tris, pH 7.4, 150 mM NaCl, 1% Triton-X-100, 2 mM NaF, 2 mM EDTA, 2 mM b-glycerophosphate, 5 mM sodium orthovanadate, 1 mM PMSF, leupeptin, aprotenin) was injected into each sample, and the cells were lysed. A sample buffer was added to each sample based on the measured total protein concentration, and the mixture was reacted at 100° C. for 5 minutes. After 5 uL was taken from the completely reacted sample and aliquoted into each well of an acrylamide gel, an immunoblotting method was performed, and the experimental results are illustrated in [FIG. 3]. […]

UBR2 = target: T2, UBR2 (Rattus norvegicus, UniProt A0A8I5YBG5); assay: UBR box domain binding strength by immunoprecipitation analysis, UBR2; format: cell-based; details: L6 cell line, compound 5 uM, 24 hours, immunoprecipitation and immunoblotting
T2 construct: endogenous in cells; host or cells: L6 rat muscle-derived cells
Experimental: (§1) To evaluate the binding strength of the compounds to UBR1, UBR2, UBR3 and UBR5 through the UBR box domain, a L6 cell line, which is a rat muscle-derived cell, was cultured using a DMEM medium containing 10% FBS and 1% streptomycin/penicillin in an incubator in which 5% carbon dioxide was maintained. In order to measure the UBR1 binding strength according to the treatment with a representative compound selected from the present compounds, cells were aliquoted into a 100 pi dish. The cells were additionally cultured for 24 hours so as to be completely attached to the surface of the plate. […] To extract proteins from the collected cells, 50 uL of a lysis buffer (20 mM Tris, pH 7.4, 150 mM NaCl, 1% Triton-X-100, 2 mM NaF, 2 mM EDTA, 2 mM b-glycerophosphate, 5 mM sodium orthovanadate, 1 mM PMSF, leupeptin, aprotenin) was injected into each sample, and the cells were lysed. Each sample was reacted with a UBR1 antibody for 16 hours based on the measured total protein concentration, and then reacted with Protein A/G beads for 3 hours. A sample buffer was added to the completely reacted sample and the resulting mixture was reacted at 100° C. for 5 minutes. After 20 uL was taken from the completely reacted sample and aliquoted into each well of an acrylamide gel, an immunoblotting method was performed, and the experimental results are illustrated in [FIG. 10] and [FIG. 11]. […]

UBR5 = target: T3, UBR5 (Rattus norvegicus, UniProt Q62671); assay: UBR box domain binding strength by immunoprecipitation analysis, UBR5; format: cell-based; details: L6 cell line, compound 5 uM, 24 hours, immunoprecipitation and immunoblotting
T3 construct: endogenous in cells; host or cells: L6 rat muscle-derived cells
Experimental: as §1

UBR1 [3] = target: T1, UBR1; assay: UBR box domain binding strength by immunoprecipitation analysis, UBR1; format: cell-based; details: L6 cell line, 24 hours, immunoprecipitation and immunoblotting
Experimental: as §1

UBR3 = target: T4, UBR3 (Rattus norvegicus, UniProt D4A7F0); assay: UBR box domain binding strength by immunoprecipitation analysis, UBR3; format: cell-based; details: L6 cell line, compound 5 uM, 24 hours, immunoprecipitation and immunoblotting
T4 construct: endogenous in cells; host or cells: L6 rat muscle-derived cells
T4 sequence (D4A7F0 1-1886): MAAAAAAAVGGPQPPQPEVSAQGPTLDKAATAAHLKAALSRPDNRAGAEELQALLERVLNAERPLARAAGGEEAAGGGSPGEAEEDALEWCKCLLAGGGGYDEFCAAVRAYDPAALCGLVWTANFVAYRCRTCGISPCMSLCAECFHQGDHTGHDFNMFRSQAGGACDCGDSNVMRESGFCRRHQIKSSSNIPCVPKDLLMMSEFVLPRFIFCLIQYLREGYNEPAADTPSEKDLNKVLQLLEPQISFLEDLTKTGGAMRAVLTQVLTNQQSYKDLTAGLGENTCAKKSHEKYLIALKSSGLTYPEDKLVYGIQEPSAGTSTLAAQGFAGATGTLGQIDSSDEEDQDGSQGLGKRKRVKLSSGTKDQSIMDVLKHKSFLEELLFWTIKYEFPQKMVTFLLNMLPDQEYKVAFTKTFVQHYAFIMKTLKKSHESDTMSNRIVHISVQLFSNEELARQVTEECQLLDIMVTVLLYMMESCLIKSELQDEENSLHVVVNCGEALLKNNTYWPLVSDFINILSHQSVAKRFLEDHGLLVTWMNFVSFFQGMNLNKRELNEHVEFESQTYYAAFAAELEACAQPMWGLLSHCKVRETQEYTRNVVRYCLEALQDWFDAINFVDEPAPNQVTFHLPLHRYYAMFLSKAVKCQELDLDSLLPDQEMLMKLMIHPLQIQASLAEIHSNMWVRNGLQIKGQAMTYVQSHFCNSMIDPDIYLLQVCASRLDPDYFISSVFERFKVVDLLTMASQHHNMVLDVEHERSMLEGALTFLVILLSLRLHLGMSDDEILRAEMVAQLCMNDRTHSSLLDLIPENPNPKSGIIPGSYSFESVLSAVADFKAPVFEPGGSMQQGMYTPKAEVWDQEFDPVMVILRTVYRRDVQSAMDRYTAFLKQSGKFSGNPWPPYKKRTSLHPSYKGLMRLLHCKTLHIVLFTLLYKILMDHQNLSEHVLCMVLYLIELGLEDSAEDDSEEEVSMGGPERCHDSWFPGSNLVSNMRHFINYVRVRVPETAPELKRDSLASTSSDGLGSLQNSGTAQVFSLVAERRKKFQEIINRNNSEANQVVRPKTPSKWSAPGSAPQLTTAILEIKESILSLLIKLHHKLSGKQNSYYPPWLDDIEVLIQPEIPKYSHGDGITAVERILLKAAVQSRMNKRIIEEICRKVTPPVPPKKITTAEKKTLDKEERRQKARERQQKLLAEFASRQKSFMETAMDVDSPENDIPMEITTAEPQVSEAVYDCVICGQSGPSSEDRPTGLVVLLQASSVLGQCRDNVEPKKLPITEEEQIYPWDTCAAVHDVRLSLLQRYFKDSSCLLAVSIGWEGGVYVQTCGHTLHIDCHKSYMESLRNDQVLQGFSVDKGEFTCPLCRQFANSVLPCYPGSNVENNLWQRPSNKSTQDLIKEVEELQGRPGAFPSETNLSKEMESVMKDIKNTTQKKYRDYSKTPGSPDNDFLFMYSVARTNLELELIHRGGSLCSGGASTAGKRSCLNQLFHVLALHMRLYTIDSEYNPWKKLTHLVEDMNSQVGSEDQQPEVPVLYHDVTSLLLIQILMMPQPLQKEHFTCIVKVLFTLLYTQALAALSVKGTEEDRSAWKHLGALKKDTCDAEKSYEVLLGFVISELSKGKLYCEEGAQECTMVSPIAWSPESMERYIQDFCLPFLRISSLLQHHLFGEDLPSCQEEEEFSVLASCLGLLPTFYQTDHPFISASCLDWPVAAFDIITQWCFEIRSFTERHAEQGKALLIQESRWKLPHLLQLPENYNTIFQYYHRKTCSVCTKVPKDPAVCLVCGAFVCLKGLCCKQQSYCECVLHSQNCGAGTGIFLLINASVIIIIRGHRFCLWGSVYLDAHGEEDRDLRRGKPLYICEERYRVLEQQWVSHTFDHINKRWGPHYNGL
Experimental: as §1

UBR1 [4] = target: T1, UBR1; assay: Inhibition of muscle cell actin degradation by immunoblotting; format: cell-based; details: L6 cell line, compound 5 uM, 24 hours
Experimental: To evaluate the actin degradation of compounds in muscle cells, a L6 cell line, which is a rat muscle-derived cell, was cultured using a DMEM medium containing 10% FBS and 1% streptomycin/penicillin in an incubator in which 5% carbon dioxide was maintained. In order to measure the UBR1 binding strength according to the treatment with a representative compound selected from the present compounds, cells were aliquoted into a 12-well plate. The cells were additionally cultured for 24 hours so as to be completely attached to the surface of the plate. […] To extract proteins from the collected cells, 50 uL of a lysis buffer (20 mM Tris, pH 7.4, 150 mM NaCl, 1% Triton-X-100, 2 mM NaF, 2 mM EDTA, 2 mM b-glycerophosphate, 5 mM sodium orthovanadate, 1 mM PMSF, leupeptin, aprotenin) was injected into each sample, and the cells were lysed. A sample buffer was added to each sample based on the measured total protein concentration, and the mixture was reacted at 100° C. for 5 minutes. After 5 uL was taken from the completely reacted sample and aliquoted into each well of an acrylamide gel, an immunoblotting method was performed, and the experimental results were illustrated in [FIG. 4], [FIG. 5], [FIG. 6], [FIG. 7], [FIG. 8], and [FIG. 9]. For the immunoblotting method, a representative experiment was schematized from three or more independent experiments.

UBR box of Human UBR1 = target: T5, UBR box of Human UBR1 (Homo sapiens, UniProt Q8IWV7); assay: UBR box domain binding by microscale thermophoresis (MST); details: RED-NHS labeled UBR1 UBR box protein (Gln97-Pro168), FIGS. 12 to 19
T5 construct: A Gln97-Pro168 portion corresponding to the UBR box of Human UBR1; made in house; host or cells: E. coli
T5 sequence (Q8IWV7 97-168): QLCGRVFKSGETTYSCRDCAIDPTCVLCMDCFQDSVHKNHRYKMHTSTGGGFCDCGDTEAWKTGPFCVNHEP
Experimental: A Gln97-Pro168 portion corresponding to the UBR box of Human UBR1 (UniProt ID: Q81WV7) was cloned into a modified expression vector, and then expressed in E. coli. After affinity chromatography was used, a tag was removed by a protease, and then Gly-His-Met was added to the N-terminal. After ion chromatography was performed, a final UBR box protein of a UBR1 was purified using gel filtration chromatography in a buffer composition of 10 mM NaCl, 20 mM Tris-HCl, 2 mM beta-mercaptoethanol, and pH 7.5.
A dye of the Monolith protein labeling kit RED-NHS 2nd generation (Cat #MO-L011) has an NHS-ester group that forms a covalent bond with primary amines (lysine residues). This dye is optimized for a Monolith-series device equipped with a RED detector. A purified UBR1 UBR box protein was labeled according to the presented protocol using this kit.
Thermophoresis refers to a phenomenon in which particles move due to a temperature gradient. Particles present in a high temperature region have greater kinetic energy than particles present in a low temperature region, and more frequently collide with surrounding particles with greater energy. As a result, particles move from the high temperature region to the low temperature region.
Thermophoresis of proteins is typically different from that of protein-ligand complexes. This is because the binding of the ligand changes its size, electric charge, and solvation energy. […] Therefore, the binding of the UBR1 UBR box protein and the ligand compound was measured using MST, and it was confirmed that the presented ligand binds to the UBR1 UBR box (see FIGS. 12 to 19).

L6 cell line = assay: Confirmation of whether muscle actin is Arg/N-degron pathway substrate (immunoblotting); format: cell-based, rat; details: MG132 10 uM, 24 hours
Experimental: A L6 cell line, which is a rat muscle-derived cell, was cultured using a DMEM medium containing 10% FBS and 1% streptomycin/penicillin in an incubator in which 5% carbon dioxide was maintained, and cells were aliquoted into a 12-well plate after the culture. The cells were additionally cultured for 24 hours so as to be completely attached to the surface of the plate. To confirm whether MG132 increased UBR1 binding, cells were collected after treatment with MG132 (10 uM) alone for 24 hours. To extract proteins from the collected cells, 50 uL of a lysis buffer (20 mM Tris, pH 7.4, 150 mM NaCl, 1% Triton-X-100, 2 mM NaF, 2 mM EDTA, 2 mM b-glycerophosphate, 5 mM sodium orthovanadate, 1 mM PMSF, leupeptin, aprotenin) was injected into each sample, and the cells were lysed. A sample buffer was added to each sample based on the measured total protein concentration, and the mixture was reacted at 100° C. for 5 minutes. After 5 uL was taken from the completely reacted sample and aliquoted into each well of an acrylamide gel, an immunoblotting method was performed, and the experimental results are illustrated in [FIG. 1]. For the immunoblotting method, a representative experiment was schematized from three or more independent experiments.

## Nc1ccc(S(=O)(=O)NNC(=O)c2ccc(O)cc2)cc1 [Compound 2, 4-amino-N′-(4-hydroxybenzoyl)benzenesulfonohydrazide]
UBR1 [1]
  level of R-nsP4 compared to the control: increased
UBR1 [2]
  level of RGS4 compared to the control: increased
UBR2
  binding strength of UBR2 and ACTA1: reduced
UBR5
  binding strength of UBR5 and ACTA1: reduced
UBR1 [3]; compound 5 uM
  binding strength of UBR1 and ACTA1: reduced
UBR3
  binding strength of UBR3 and ACTA1: reduced
UBR1 [4]
  level of ACTA1 compared to the control: further increased
UBR box of Human UBR1
  binding to UBR1 UBR box (MST): binds

## Nc1ccc(S(=O)(=O)NNC(=O)c2ccc(O)cc2)cc1N1CCOCC1 [Compound 3, 4-amino-N′-(4-hydroxybenzoyl)-3-morpholinobenzenesulfonohydrazide]
UBR1 [1]
  level of R-nsP4 compared to the control: increased
UBR1 [2]
  level of RGS4 compared to the control: increased
UBR1 [4]
  level of ACTA1 compared to the control: further increased

## Nc1ccc(S(=O)(=O)NNC(=O)c2cccc(-c3ccccc3)c2)cc1 [Compound 7, N′-([1,1′-biphenyl]-3-carbonyl)-4-aminobenzenesulfonohydrazide]
UBR1 [1]
  level of R-nsP4 compared to the control: increased
UBR1 [4]
  level of ACTA1 compared to the control: further increased

## Nc1ccc(S(=O)(=O)NCC(=O)c2ccc(O)cc2)cc1 [Compound 12, 4-amino-N-(2-(4-hydroxyphenyl)-2-oxoethyl)benzenesulfonamide]
UBR1 [1]
  level of R-nsP4 compared to the control: increased
UBR1 [4]
  level of ACTG2 compared to the control: further increased
UBR box of Human UBR1
  binding to UBR1 UBR box (MST): binds

## N=C(N)c1ccc(S(=O)(=O)NNC(=O)c2ccc(O)cc2)cc1 [Compound 14, 4-((2-(4-hydroxybenzoyl)hydrazinyl)sulfonyl)benzimidamide]
UBR1 [1]
  level of R-nsP4 compared to the control: increased
UBR1 [4]
  level of ACTG2 compared to the control: further increased

## Nc1ccc(S(=O)(=O)CNC(=O)c2ccc(O)cc2)cc1 [Compound 16, N-(((4-aminophenyl)sulfonyl)methyl)-4-hydroxybenzamide]
UBR1 [1]
  level of R-nsP4 compared to the control: increased
UBR1 [4]
  level of ACTA1 compared to the control: further increased

## CC(C)C[C@@H](C=O)NC(=O)[C@H](CC(C)C)NC(=O)[C@H](CC(C)C)NC(=O)OCc1ccccc1 [MG132] (Cbz-Leu-Leu-Leu-aldehyde)
UBR1 [3]; MG132 10 uM as negative control
  binding strength between UBR1 and a substrate ACTA1: maintained
L6 cell line
  level of ACTA1 compared to a control: increased
  level of ACTC1 compared to a control: increased
  level of ACTG2 compared to a control: increased

Reference: US12559455B2, “Compound as a UBR box domain ligand” (AUTOTAC INC., priority 2020, dated 2026)
